Results on seven molecules are retold here after patent publication US9428505B2, “Hydantoin derivative” (Chugai Seiyaku Kabushiki Kaisha, priority 2012, dated 2016).

SMILES strings stand for the structures.

As a reminder, the EC20 is the concentration needed for an effect of 20%. A low value points to an effect from little substance. As usually defined, the EC50 is the midpoint of the concentration-response curve.

Data set [1] can be described thus: Metabolic stability using rat hepatocyte. Format: in vitro ADME. To be noted: for hepatocyte CLint at 1 μM: rat (SD, female) hepatocytes 1×10^6 cells/mL, compound 1 μM, 37° C., read-out: Clearance; for rat hepatocyte metabolic stability compared to Comparative Examples 1, 2, 3, 5, and 6: rat hepatocytes. The procedure:
Examination of Metabolic Stability Using Rat Hepatocyte
Liver cells were prepared from the liver of rats (SD, female) by a collagenase perfusion method. A compound of the Examples or a Comparative Example was added, and this was incubated at 37° C. for a specified amount of time, followed by addition of a reaction-stopping solution. The concentration of the parent compound at each reaction time was measured using LC/MS/MS, and inherent clearance (μL/10^6 cells/min) was calculated from the slope of the reaction time versus residual rate.
Cell concentration: 1×10^6 cells/mL
(§1) Compound concentration: 1 μM
Medium: Williams' medium E
Reaction-stopping solution: acetonitrile/2-propanol (4/6, v/v)

A further data set has as its target human PTH1R (Homo sapiens (Human), UniProt Q03431). Put plainly: In vitro cAMP signal activity via the human PTH1R (HKRK-B7 cells). The class given is cell-based. The conditions noted are these: 100 nM human PTH(1-34) = 100%; for EC20: concentration giving 20% cAMP signaling activity; for EC50: concentration giving 50% cAMP signaling activity. As to the method: Measurement of In Vitro cAMP Signal Activity of Compounds Via the Human PTH1R
Human PTH(1-34) and calcitonin were purchased from Peptide Institute, Inc. (Osaka, Japan), dissolved in 10 mM acetic acid to 1 mM and stored in a −80° C. freezer.
Cells were cultured in Dulbecco's modified Eagle's medium (DMEM) supplemented with 10% fetal bovine serum (Hyclone), 100 units/ml penicillin G and 100 μg/ml streptomycin sulfate (Invitrogen Corp) at 37° C. in a humidified atmosphere containing 5% CO2.
cAMP signal transduction analysis utilized LLC-PK1 cells not expressing the PTH1R, and HKRK-B7 cells, that is, LLC-PK1 cells overexpressing the human PTH1R at 9.5×10^5 receptors/cell (Takasu et al., J. Bone. Miner. Res. 14:11-20, 1999).
HKRK-B7 or LLC-PK1 cells were seeded into a 96-well plate at 1×10^5 cells/well and incubated overnight. On the following day, 50 μl of cAMP assay buffer (DMEM, 2 mM IBMX, 0.2 mg/ml bovine serum albumin, 35 mM Hepes-NaOH, pH 7.4) containing human PTH(1-34) or each compound was added and the plate was placed in a 37° C. incubator. The cells were incubated for 20 minutes. After removing the medium, the cells were washed with 100 μl of cAMP assay buffer once. The plate was placed on dry ice powder to freeze the cells and then removed from the dry ice. The cells were lysed with 40 μl of 50 mM HCl and frozen again on dry ice. The amount of intracellular cAMP produced was measured using a commercially available cAMP EIA kit (Biotrack cAMP EIA system, GE health care).
Analyses were performed using a variable gradient S-shaped dose-response curve equation.

For a further data set, the system named is TPTX rat model. Put plainly: Calcemic action in the TPTX rat model. Format: in vivo. To be noted: TPTX rats, oral 30 mg/kg; for change of serum Ca concentration from the Pre-value: up to 24 hours after administration; for significance of serum Ca change compared to Comparative Examples 1 and 2: p<0.05. The procedure: Calcemic Action in the TPTX Rat Model
Four-week old female Crl:CD(SD) rats were obtained from Charles River Japan (Atsugi Breeding Center), and were acclimated to standard laboratory conditions of 20-26° C. and 35-75% humidity for one week. The rats were given tap water and were fed ad libitum with standard rodent chow (CE-2) (CLEA Japan, Inc.) containing 1.1% calcium, 1.0% phosphoric acid, and 250 IU/100 g of vitamin D3.
TPTX was performed on five-week old rats. Some of the individuals were subjected to sham operation (Sham). Individuals whose serum Ca concentration was less than 8 mg/dL on four days after the operation were selected for use as TPTX rats. On five days after the operation, the rats were assigned to eight TPTX groups and one Sham group (n=5, each group) based on their body weight and serum Ca concentration measured on four days after the operation. The solvent alone was orally administered to the Sham group and the TPTX-Vehicle group at a volume of 10 mL/kg. Each test article was orally administered individually to each TPTX test article group by dissolving it in a solvent at a dose of 30 mg/10 mL/kg. The solvent composition was 10% dimethylsulfoxide (Wako Pure Chemical Industries, Ltd.), 10% Cremophor EL (Sigma-Aldrich Japan LLC), 20% hydroxypropyl-β-cyclodextrin (Nihon Shokuhin Kako Co., Ltd.), glycine (Wako Pure Chemical Industries, Ltd.); and the pH was adjusted to 10. Immediately before administration of each sample, Pre-blood collection was performed, and blood collection was carried out at 2, 6, 10, and 24 hours after administration to measure the serum Ca concentration. Each blood collection was carried out from the jugular vein under isoflurane inhalation anesthesia.
Serum Ca measurement: Serum obtained by centrifugation from the collected blood was measured by using an automatic analyzer TBA-120FR (Toshiba Medical Systems Corporation).
For statistical analysis of the animal studies, data are shown as mean±standard error (SE). Statistical analysis were performed by unpaired test of the SAS Preclinical Package (Ver. 5.00.010720, SAS Institute Japan, Tokyo, Japan).

A short description of data set [2]: Metabolic stability using human liver microsomes. Format: in vitro ADME. The conditions noted are these: pH 7.4; human liver microsomes 0.5 mg/mL, compound 1 μM, NADPH 1 mM, 37° C.; read-out: Clearance. As to the method:
Examination of Metabolic Stability Using Human Liver Microsomes
In 0.1 M phosphate buffer (pH7.4), human liver microsomes were incubated with a compound or a comparative example in the coexistence of NADPH at 37° C. for a specified amount of time. The concentration of the parent compound at each reaction time was measured using LC/MS/MS, and inherent clearance (μL/min/mg protein) was calculated from the slope of the reaction time versus residual rate.
as §1
Reaction time: 0, 5, 15, and 30 minutes
(Microsomes from liver hold many membrane-bound enzymes, among them those of drug oxidation.)

In a further data set the target is rat PTH1R (Rattus norvegicus (Rat), UniProt P25961). Briefly: In vitro cAMP signaling activity via the rat PTH1R (LLC-PK46_RATO_PTH1R cells). Format: cell-based. To be noted: LLC-PK46_RATO_PTH1R cells overexpressing rat PTH1R; for EC20: 20% cAMP signaling activity; for EC50: 50% cAMP signaling activity. From the text: Measurement of the Compounds' In Vitro cAMP Signaling Activity Via the Rat PTH1R
Chain of rat PTH1R (P25961 27-591): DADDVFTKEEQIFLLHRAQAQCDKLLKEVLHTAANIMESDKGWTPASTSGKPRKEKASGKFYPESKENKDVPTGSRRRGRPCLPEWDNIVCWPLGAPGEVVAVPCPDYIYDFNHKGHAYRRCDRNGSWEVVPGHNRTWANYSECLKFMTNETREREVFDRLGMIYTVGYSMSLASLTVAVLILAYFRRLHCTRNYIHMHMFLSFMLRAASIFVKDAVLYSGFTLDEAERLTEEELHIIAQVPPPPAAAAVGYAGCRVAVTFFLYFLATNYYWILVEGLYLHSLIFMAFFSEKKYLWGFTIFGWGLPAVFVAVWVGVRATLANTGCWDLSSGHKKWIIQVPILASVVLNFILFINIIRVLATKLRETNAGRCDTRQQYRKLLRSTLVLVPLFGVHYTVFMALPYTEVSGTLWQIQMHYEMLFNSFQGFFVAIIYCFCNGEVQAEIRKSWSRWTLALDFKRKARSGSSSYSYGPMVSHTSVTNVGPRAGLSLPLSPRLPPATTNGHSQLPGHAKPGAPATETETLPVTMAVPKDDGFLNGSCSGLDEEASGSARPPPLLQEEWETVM
Instead of HKRK-B7 cells, LLC-PK46_RATO_PTH1R cells overexpressing rat PTH1R, which were established at Chugai Pharmaceutical, were used to take measurements in a similar manner to Test Example 1.

Chain of human PTH1R (Q03431 27-593): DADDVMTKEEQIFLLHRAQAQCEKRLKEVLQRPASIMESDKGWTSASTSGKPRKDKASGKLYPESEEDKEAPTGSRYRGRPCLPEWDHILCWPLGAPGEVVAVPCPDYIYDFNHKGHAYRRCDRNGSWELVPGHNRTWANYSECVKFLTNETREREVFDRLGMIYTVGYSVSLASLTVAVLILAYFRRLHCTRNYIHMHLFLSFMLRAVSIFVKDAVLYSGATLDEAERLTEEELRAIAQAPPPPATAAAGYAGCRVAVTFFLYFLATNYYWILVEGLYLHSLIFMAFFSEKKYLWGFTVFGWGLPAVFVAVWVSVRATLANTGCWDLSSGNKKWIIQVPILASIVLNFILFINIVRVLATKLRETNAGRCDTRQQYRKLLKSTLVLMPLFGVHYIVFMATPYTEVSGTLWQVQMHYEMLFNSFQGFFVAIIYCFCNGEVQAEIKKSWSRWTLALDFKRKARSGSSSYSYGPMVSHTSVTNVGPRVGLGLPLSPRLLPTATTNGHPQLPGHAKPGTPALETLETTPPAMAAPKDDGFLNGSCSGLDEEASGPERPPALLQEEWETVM

For the molecule `Cc1cc(N2C(=O)NC(=O)C2(C)C)cc(C)c1CCS(=O)(=O)N1CCC2(CC1)N=C(c1cccc(C(F)(F)F)c1)NC2=O` [Compound 6, 1-(3,5-dimethyl-4-(2-((4-oxo-2-(3-(trifluoromethyl)phenyl)-1,3,8-triazaspiro[4.5]deca-1-en-8-yl)sulfonyl)ethyl)phenyl)-5,5-dimethylimidazolidine-2,4-dione], the hepatocyte CLint at 1 μM in data set [1] amounted to 1.4 µL/min/1e6 cells. On human PTH1R, this molecule returned an EC20 of 2.0 µM and an EC50 of 9 µM. For the same molecule, in the data set with TPTX rat model, the “achievement of therapeutic target range of serum Ca concentration of 7.6 to 8.8 mg/dL” value (“achievement” below) is reported as “achieved the therapeutic target range” and the “change of serum Ca concentration from the Pre-value” (“change of serum Ca concentration” for short) is on record as “large positive changes from the Pre-value”. Further, in data set [2], the microsomal CLint at 1 μM was 29 µL/min/mg.

With `Cc1cc(N2C(=O)NC(=O)C23COC3)cc(C)c1CCS(=O)(=O)N1CCC2(CC1)N=C(c1ccc(OC(F)(F)F)cc1)NC2=O` [Compound 10, 5-(3,5-dimethyl-4-(2-((4-oxo-2-(4-(trifluoromethoxy)phenyl)-1,3,8-triazaspiro[4.5]deca-1-en-8-yl)sulfonyl)ethyl)phenyl)-2-oxa-5,7-diazaspiro[3.4]octane-6,8-dione], in data set [1], the hepatocyte CLint at 1 μM came out at 0.3 µL/min/1e6 cells; the “rat hepatocyte metabolic stability compared to Comparative Examples 1, 2, 3, 5, and 6” value was “increased”. Further, at human PTH1R, the EC20 worked out at 5.0 µM and the EC50 was 21 µM. Also, the microsomal CLint at 1 μM in data set [2] came out at 29 µL/min/mg. Also, on rat PTH1R, the EC20 was 3.0 µM and the EC50 was found to be 12 µM.

For the molecule `Cc1cc(N2C(=O)NC(=O)C2(C)C)cc(C)c1CCS(=O)(=O)N1CCC2(CC1)N=C(c1ccc(OC(F)(F)F)cc1)NC2=O` [Compound 7, 1-(3,5-dimethyl-4-(2-((4-oxo-2-(4-(trifluoromethoxy)phenyl)-1,3,8-triazaspiro[4.5]deca-1-en-8-yl)sulfonyl)ethyl)phenyl)-5,5-dimethylimidazolidine-2,4-dione], in data set [1], the hepatocyte CLint at 1 μM was determined as 0.9 µL/min/1e6 cells; the “rat hepatocyte metabolic stability compared to Comparative Examples 1, 2, 3, 5, and 6” value is “increased”. At human PTH1R, this molecule gave an EC20 of 1.1 µM and a concentration for a half-maximal effect (EC50) of 4.1 µM. Besides, in the data set on TPTX rat model, the “achievement” value was “achieved the therapeutic target range”; the “change of serum Ca concentration” value was “large positive changes from the Pre-value”; the “significance of serum Ca change compared to Comparative Examples 1 and 2” value is listed as “statistically significant”. Moreover, in data set [2], the microsomal CLint at 1 μM came out at 30 µL/min/mg. For the same molecule, on rat PTH1R, the EC20 amounted to 0.5 µM and it took 2.4 µM to reach a half-maximal effect (EC50).

In the case of `Cc1cc(N2C(=O)CNC2=O)ccc1CCS(=O)(=O)N1CCC2(CC1)N=C(c1cccc(OC(F)(F)F)c1)NC2=O` [Comparative Example 1, reference compound], in data set [1], the hepatocyte CLint at 1 μM worked out at 5.8 µL/min/1e6 cells. Moreover, at human PTH1R, the EC20 stood at 1.5 µM and the EC50 worked out at 4.8 µM. Further, in the data set with TPTX rat model, the “achievement” value is reported as “could not be achieved” and the “change of serum Ca concentration” value is on record as “smaller positive changes from the Pre-value”. Further, the microsomal CLint at 1 μM in data set [2] stood at 84 µL/min/mg. At rat PTH1R, this molecule came in with an EC20 of 0.8 µM and an EC50 of 2.3 µM.

As to `Cc1cc(N2C(=O)NC(=O)C2(C)C)cc(C)c1CCS(=O)(=O)N1CCC2(CC1)N=C(c1ccc(F)c(OC(F)(F)F)c1)NC2=O` [Compound 1, 1-(4-(2-((2-(4-fluoro-3-(trifluoromethoxy)phenyl)-4-oxo-1,3,8-triazaspiro[4.5]deca-1-en-8-yl)sulfonyl)ethyl)-3,5-dimethylphenyl)-5,5-dimethylimidazolidine-2,4-dione], the hepatocyte CLint at 1 μM in data set [1] came out at 7.6 µL/min/1e6 cells. Besides, at human PTH1R, the EC20 came to 1.3 µM and a half-maximal response (EC50) required 5.8 µM. Further, in the data set with TPTX rat model, the “achievement” value is listed as “could not be achieved” and the “change of serum Ca concentration” value was “smaller positive changes from the Pre-value”. Besides, the microsomal CLint at 1 μM in data set [2] turned out to be 21 µL/min/mg.

Consider `Cc1cc(N2C(=O)NC(=O)C23CC3)cc(C)c1CCS(=O)(=O)N1CCC2(CC1)N=C(c1ccc(OC(F)(F)F)cc1)NC2=O` [Compound 11, 4-(3,5-dimethyl-4-(2-((4-oxo-2-(4-(trifluoromethoxy)phenyl)-1,3,8-triazaspiro[4.5]deca-1-en-8-yl)sulfonyl)ethyl)phenyl)-4,6-diazaspiro[2.4]heptane-5,7-dione], for which, in data set [1], the “rat hepatocyte metabolic stability compared to Comparative Examples 1, 2, 3, 5, and 6” value was “increased”. At human PTH1R, this molecule showed an EC20 of 1.5 µM and an EC50 of 11 µM. The microsomal CLint at 1 μM in data set [2] came to 19 µL/min/mg. In addition, at rat PTH1R, the EC20 is 0.8 µM and a half-maximal response (EC50) required 3.2 µM.

Take `Cc1cc(N2C(=O)NC(=O)C23CCCC3)cc(C)c1CCS(=O)(=O)N1CCC2(CC1)N=C(c1ccc(OC(F)(F)F)cc1)NC2=O` [Compound 8, 1-(3,5-dimethyl-4-(2-((4-oxo-2-(4-(trifluoromethoxy)phenyl)-1,3,8-triazaspiro[4.5]deca-1-en-8-yl)sulfonyl)ethyl)phenyl)-1,3-diazaspiro[4.4]nonane-2,4-dione]: in data set [1], the hepatocyte CLint at 1 μM was 3 µL/min/1e6 cells; the “rat hepatocyte metabolic stability compared to Comparative Examples 1, 2, 3, 5, and 6” value was “increased”. In the data set with TPTX rat model, the “achievement” value is on record as “achieved the therapeutic target range”; the “change of serum Ca concentration” value is “large positive changes from the Pre-value”; the “significance of serum Ca change compared to Comparative Examples 1 and 2” value is recorded as “statistically significant”. Besides, the microsomal CLint at 1 μM in data set [2] amounted to 35 µL/min/mg. Further, at rat PTH1R, the EC20 was 0.4 µM and the half-maximal effective concentration (EC50) came to 1.9 µM.
